How the values were obtained:
B. subtilis 168 [1] = assay: fitness (endpoint OD595 vs no drug) (fraction); higher = more growth
Procedure, shortened: (§1)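 Bacterial growth was followed in 384-well plates seeded at OD595 0.01, with 30 µl per well, or 55 µl for S. pneumoniae, in TSB, LB Lennox or CY at 37 °C. OD595 was read every 30 min for 14 h, and each reading had the first reading subtracted as background. Fitness is the background-corrected optical density at entry into stationary phase divided by the robust mean of the no-drug control wells. This ratio is capped at 1.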

B. subtilis 168 [2] = assay: Bliss interaction score (quartile over a dose matrix) (fitness difference); higher = more antagonism (negative = synergy)
Procedure, shortened: (§2)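 Fitness was derived from optical density at entry into stationary phase, divided by the robust mean of the no-drug wells on the same plate. That reading was taken as OD595, and the ratio was capped at 1. Single-drug fitness was inferred from the combination data. The Bliss score, observed fitness minus the expected product of single-drug fitness, was summarised as quartiles over technical, biological and donor/recipient replicates.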

S. aureus DSM 20231 = assay: as above
Procedure, shortened: as §2

S. aureus Newman = assay: as above
Procedure, shortened: as §2

S. pneumoniae D39V [3] = assay: as above
Procedure, shortened: as §2

S. pneumoniae D39V [4] = assay: fitness (endpoint OD595 vs no drug) (fraction); higher = more growth
Procedure, shortened: as §1
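Wherever Bliss interaction score (quartile over a dose matrix) is given: first quartile when negative (synergy) and third quartile when positive (antagonism).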

CCC[C@@H]1C[C@@H](C(=O)N[C@@H]([C@H]2O[C@H](SC)[C@H](O)[C@@H](O)[C@H]2O)[C@H](C)Cl)N(C)C1 [Clindamycin] + CO[C@@H]1[C@@H](OC(N)=O)[C@@H](O)[C@H](Oc2ccc3c(O)c(NC(=O)c4ccc(O)c(CC=C(C)C)c4)c(=O)oc3c2C)OC1(C)C [Novobiocin]
fitness, B. subtilis 168 [1], one replicate
Details | first compound 0.0039 µg/mL | first compound 0.0078 µg/mL | first compound 0.0156 µg/mL | first compound 0.0625 µg/mL | first compound 0.125 µg/mL | first compound 0.25 µg/mL
partner 0.05 µg/mL | ≥ 1 | 0.895 | 0.867 | – | – | –
partner 0.1 µg/mL | ≥ 1 | 0.889 | 0.843 | – | – | –
partner 0.125 µg/mL | – | – | – | 0.526 | 0.496 | 0.348
partner 0.2 µg/mL | ≥ 1 | 0.903 | 0.818 | – | – | –
partner 0.25 µg/mL | – | – | – | 0.411 | 0.39 | 0.318
partner 0.5 µg/mL | – | – | – | 0.353 | 0.276 | 0.0724

fitness, B. subtilis 168 [1]
Details | first compound 0.0625 µg/mL | first compound 0.125 µg/mL | first compound 0.25 µg/mL
partner 0.0125 µg/mL | 0.558 | 0.365 | 0.346
partner 0.025 µg/mL | 0.563 | 0.334 | 0.326
partner 0.05 µg/mL | 0.581 | 0.369 | 0.325

Details | Bliss interaction score
B. subtilis 168 [2] | -0.063
S. aureus DSM 20231 | 0.0437
S. aureus Newman | 0.16
S. pneumoniae D39V [3] | -0.102

CCC[C@@H]1C[C@@H](C(=O)N[C@@H]([C@H]2O[C@H](SC)[C@H](O)[C@@H](O)[C@H]2O)[C@H](C)Cl)N(C)C1 [Clindamycin] + C[C@H]1COc2c(N3CCN(C)CC3)c(F)cc3c(=O)c(C(=O)O)cn1c23 [Levofloxacin]
fitness, B. subtilis 168 [1], one replicate
Details | first compound 0.0039 µg/mL | first compound 0.0078 µg/mL | first compound 0.0156 µg/mL | first compound 0.0625 µg/mL | first compound 0.125 µg/mL | first compound 0.25 µg/mL
partner 0.001 µg/mL | – | – | – | 0.715 | 0.554 | 0.391
partner 0.002 µg/mL | 0.97 | 0.86 | 0.833 | 0.558 | 0.442 | 0.338
partner 0.0039 µg/mL | 0.968 | 0.872 | 0.816 | 0.648 | 0.511 | 0.389
partner 0.0078 µg/mL | 0.967 | 0.854 | 0.815 | – | – | –

Details | fitness
B. subtilis 168 [1], first compound 0.0625 µg/mL, partner 0.0312 µg/mL | 0.041
B. subtilis 168 [1], first compound 0.0625 µg/mL, partner 0.0625 µg/mL | 0.038
B. subtilis 168 [1], first compound 0.0625 µg/mL, partner 0.125 µg/mL | 0.0416
B. subtilis 168 [1], first compound 0.125 µg/mL, partner 0.0312 µg/mL | 0.0414
B. subtilis 168 [1], first compound 0.125 µg/mL, partner 0.0625 µg/mL | 0.0486
B. subtilis 168 [1], first compound 0.125 µg/mL, partner 0.125 µg/mL | 0.0468
B. subtilis 168 [1], first compound 0.25 µg/mL, partner 0.0312 µg/mL | 0.0473
B. subtilis 168 [1], first compound 0.25 µg/mL, partner 0.0625 µg/mL | 0.0532
B. subtilis 168 [1], first compound 0.25 µg/mL, partner 0.125 µg/mL | 0.0518
S. pneumoniae D39V [4], first compound 0.0125 µg/mL, partner 0.2 µg/mL | 0.759
S. pneumoniae D39V [4], first compound 0.0125 µg/mL, partner 0.4 µg/mL | 0.736
S. pneumoniae D39V [4], first compound 0.0125 µg/mL, partner 0.8 µg/mL | 0.605
S. pneumoniae D39V [4], first compound 0.015 µg/mL, partner 0.1725 µg/mL | 0.909
S. pneumoniae D39V [4], first compound 0.015 µg/mL, partner 0.345 µg/mL | 0.865
S. pneumoniae D39V [4], first compound 0.015 µg/mL, partner 0.69 µg/mL | 0.595
S. pneumoniae D39V [4], first compound 0.025 µg/mL, partner 0.2 µg/mL | 0.478
S. pneumoniae D39V [4], first compound 0.025 µg/mL, partner 0.4 µg/mL | 0.47
S. pneumoniae D39V [4], first compound 0.025 µg/mL, partner 0.8 µg/mL | 0.39
S. pneumoniae D39V [4], first compound 0.03 µg/mL, partner 0.1725 µg/mL | 0.822
S. pneumoniae D39V [4], first compound 0.03 µg/mL, partner 0.345 µg/mL | 0.759
S. pneumoniae D39V [4], first compound 0.03 µg/mL, partner 0.69 µg/mL | 0.546
S. pneumoniae D39V [4], first compound 0.05 µg/mL, partner 0.2 µg/mL | 0.235
S. pneumoniae D39V [4], first compound 0.05 µg/mL, partner 0.4 µg/mL | 0.189
S. pneumoniae D39V [4], first compound 0.05 µg/mL, partner 0.8 µg/mL | 0.15
S. pneumoniae D39V [4], first compound 0.06 µg/mL, partner 0.1725 µg/mL | 0.631
S. pneumoniae D39V [4], first compound 0.06 µg/mL, partner 0.345 µg/mL | 0.601
S. pneumoniae D39V [4], first compound 0.06 µg/mL, partner 0.69 µg/mL | 0.399

Details | Bliss interaction score
B. subtilis 168 [2] | 0.0326
S. aureus DSM 20231 | 0.0785
S. aureus Newman | 0.0891
S. pneumoniae D39V [3] | 0.0885

Source: the supplement of paper PMC10627819
